Laboratory results taken from patent US12252701B2, “Chimeric antigen receptor T cell therapy” (KITE PHARMA, INC., priority 2020, dated 2025).
Like-named read-outs stand apart in the source and are kept apart here.

Assays:
CD19 CAR T cells = experiment: CAR T cell cytokine production (Luminex) under CD19 K562, KIP-1 or CD2/3/28 stimulation; conditions: 72 h
Procedure: Cryopreserved healthy donor CLP CD19 CAR T cells were thawed and rested overnight in 100 U/ml of IL-2 at 1×10^6/ml. 2.5×10^5 CD19 CART cells were plated in 96-well RB plate wells in a total volume of 200 μl of R10 culture media. […] CD19 CART cell cytokine production was allowed to proceed through 72 hours in the presence of stimulator and JAKi or steroid. Following 72 h of culture, 100 μl of the cell supernatant of each well were harvested and stored at −80° C. for later Luminex/Bioplex-200 cytokine analysis. Briefly, stored supernatants were thawed and 50 μl of the sample was assayed for cytokines using a ThermoFisher Procarta Plex 19-plex human cytokine assay kit (ThermoFisher, Carlsbad, CA) according to kit manufacturer's instructions and detected using a BioRad Bioplex-200 instrument. The data points generated from the luminex cytokine assay were transferred to a GraphPad PRISM IC50 dose-response curve analysis to generate IC50 or potency values for the JAKi's and steroids tested.

[1] = Clinical pharmacokinetic data converted to in vitro concentrations; conditions: human, in vivo
Source text: Given the different potencies of the JAK inhibitors and different pharmacokinetic properties for each drug, it was sought to test each drug at a relevant range of physiological concentrations based on clinical dosing and reported pharmacokinetic data from repeat dose studies. Reported Cmax values in patient sera were converted to in vitro concentrations and adjusted for reported plasma protein binding.

[2] = test system: phospho-STAT panel (pSTAT3/4/5), CD3+ T cells; experiment: phospho-STAT induction by IL-6, MesoScale Discovery phospho-STAT panel; assay type: cell-based, human; conditions: CD3+ T cells; for pSTAT3: MSD signal (No stim. 689, IL-6 alone 33641); for pSTAT4: MSD signal (No stim. 1964, IL-6 alone 15405); for pSTAT5: MSD signal (No stim. 9210, IL-6 alone 17743)
Procedure: CD19 CAR-T, PBMC or CD3+ T cells (AllCells) were thawed and rested 0/N at 37° C. in R10 media. Cells were seeded at 700,000 cells/well and were either untreated or treated with 100 ng/ml IL6+drug at indicated concentrations for 20 minutes at 37° C. The cells were then washed with cold PBS and followed by 60 μl of Tris lysis buffer (provided by MSD) for 30 minutes on ice. Lysates were collected by spin down for 10 minutes at >10,000 rpm. 25 μl/well per condition was used for MesoScale Discovery (MSD) assay using the phospho-STAT panel (pSTAT3/4/5) from MesoScale Discovery following the manufacturer's protocol. pSTAT panel plates were blocked with 150 μl of blocker A solution for 1 hr at RT with shaking. Plates were washed three times with 1× Tris wash buffer. 25 μl of lysate samples were added per well, incubated 2 hr at room temperature or at 4° C. overnight. Plates were washed 3 times with 1× tris wash buffer and then 25 μl of detection antibody solution were added to each well and incubated for 1 hr at room temperature with shaking. Plates were washed and 1× read buffer added to each well and plates were read on the MSD instrument.

[3] = test system: NALM6.GFP.LUC.CD19 target cells
Procedure: The percent cytotoxicity to NALM6.GFP.LUC.CD19 target cells was measured by luciferase detection at each round.
In one embodiment, a serial killing assay is a combination of cell killing and how long it takes for CAR T cells to get exhausted under repeated stimulation. In one embodiment, a serial killing assay is a surrogate measure for CAR T cell persistence in vivo.

in vitro = conditions: human, CAR-T cells
Procedure: (§1) 96-well plates were coated with 100 μl of KIP-1 antibody per well at 1 μg/ml in PBS and plates were incubated at 4° C. overnight. CAR-T cells were thawed and were rested in ImmunoCult expansion medium and incubated overnight at 37° C. Cells were then counted and resuspended at 2 million cells/ml and seed at 200,000 cells per well in 100 μl of expansion medium with 10 ng/ml recombinant IL2. For groups treated with KIP-1, 100 μl of expansion medium were added with 2× final drug dilutions. For CD3/CD28 treated groups, 100 μl of expansion media were added with 2× final drug dilutions containing 25 μl/ml of CD3/CD28 T cell activator from StemCell Technologies. Cells were then incubated at 37° C. After 4 days, cells were counted and diluted 1 to 8-fold in expansion media and then transferred to a 24-well plate. Cell counts were repeated at day 7 and transferred to T25 flasks. On day 11, all cells were harvested and counted.

[4] = plasma protein binding, reported; cited from earlier work
CAR-T cells = experiment: CAR-T cell expansion assay (KIP-1 or CD3/CD28 stimulation); conditions: CD3/CD28
Procedure: as §1

[5] = 100 ng/ml IL-6 + drug 10 uM, 20 min

Q: Which “Suppression of cytokine production, IL-6 (IC50)” value (CD19 CAR T cells; CD3/CD28 stimulation) does the source give for `C[C@H]1C[C@@H]2[C@H]([C@@H](O)C[C@@]3(C)[C@H]2CC[C@]3(O)C(=O)CO)[C@@]2(C)C=CC(=O)C=C12` [Methlyprednisolone] here?
A: Its value is “Suppress”.

Q: And the “Suppression of cytokine production, MCP-1, % inh.” value (CD19 CAR T cells; CD3/CD28 stimulation)?
A: Its value is greater than 80% inh.

Q: What about the “Suppression of cytokine production, TNFa, % inh.” value (CD19 CAR T cells; CD3/CD28 stimulation) of the same compound?
A: The value was greater than 50% inh.

Q: And the “Suppression of cytokine production, IL-6 (IC50)” value (CD19 CAR T cells; K562-CD19 stimulation)?
A: The value was “Suppress”.

Q: And the “Suppression of cytokine production, MCP-1 (IC50)” value (CD19 CAR T cells; K562-CD19 stimulation)?
A: The value was “Suppress”.

Q: What about the “Suppression of cytokine production, MIG (IC50)” value (CD19 CAR T cells; K562-CD19 stimulation) of the same compound?
A: The value was “Suppress”.

Q: What about the “Suppression of cytokine production, TNFa (IC50)” value (CD19 CAR T cells; K562-CD19 stimulation) of the same compound?
A: Its value is “Suppress”.

Q: And the “Suppression of cytokine production, IL-6, % inh.” value (CD19 CAR T cells; KIP-1 stimulation)?
A: Its value is 66% inh.

Q: What about the “Suppression of cytokine production, IL-10, % inh.” value (CD19 CAR T cells; KIP-1 stimulation) of the same compound?
A: Its value is 50% inh.

Q: And the “Suppression of cytokine production, MCP-1, % inh.” value (CD19 CAR T cells; KIP-1 stimulation)?
A: Its value is 66% inh.

Q: And the “Suppression of cytokine production, MIG, % inh.” value (CD19 CAR T cells; KIP-1 stimulation)?
A: Its value is 50% inh.

Q: What about the “Suppression of cytokine production, TNFa, % inh.” value (CD19 CAR T cells; KIP-1 stimulation) of the same compound?
A: Its value is 75% inh.

Q: And the IC50 (CD19 CAR T cells; read-out: Suppression of cytokine production, GMCSF (IC50), CD3/CD28 stimulation)?
A: The IC50 was greater than 10 µM.

Q: What about the IC50 (CD19 CAR T cells; read-out: Suppression of cytokine production, GMCSF (IC50), KIP-1 stimulation) of the same compound?
A: The IC50 was greater than 10 µM.

Q: What about the IC50 (CD19 CAR T cells; read-out: Suppression of cytokine production, GzB (IC50), CD3/CD28 stimulation) of the same compound?
A: Its IC50 is greater than 10 µM.

Q: What about the IC50 (CD19 CAR T cells; read-out: Suppression of cytokine production, GzB (IC50), KIP-1 stimulation) of the same compound?
A: The IC50 was greater than 10 µM.

Q: What about the IC50 (CD19 CAR T cells; read-out: Suppression of cytokine production, IFNg (IC50), CD3/CD28 stimulation) of the same compound?
A: The IC50 was greater than 10 µM.

Q: And the IC50 (CD19 CAR T cells; read-out: Suppression of cytokine production, IFNg (IC50), KIP-1 stimulation)?
A: The IC50 was greater than 10 µM.

Q: And the IC50 (CD19 CAR T cells; read-out: Suppression of cytokine production, IL-2Ra (IC50), CD3/CD28 stimulation)?
A: Its IC50 is greater than 10 µM.

Q: And the IC50 (CD19 CAR T cells; read-out: Suppression of cytokine production, IL-2Ra (IC50), K562-CD19 stimulation)?
A: Its IC50 is greater than 10 µM.

Q: And the IC50 (CD19 CAR T cells; read-out: Suppression of cytokine production, IL-2Ra (IC50), KIP-1 stimulation)?
A: Its IC50 is greater than 10 µM.

Q: What about the IC50 (CD19 CAR T cells; read-out: Suppression of cytokine production, IL-8 (IC50), CD3/CD28 stimulation) of the same compound?
A: Its IC50 is greater than 10 µM.

Q: And the IC50 (CD19 CAR T cells; read-out: Suppression of cytokine production, IL-8 (IC50), K562-CD19 stimulation)?
A: The IC50 was greater than 10 µM.

Q: What about the IC50 (CD19 CAR T cells; read-out: Suppression of cytokine production, IL-8 (IC50), KIP-1 stimulation) of the same compound?
A: Its IC50 is greater than 10 µM.

Q: What about the IC50 (CD19 CAR T cells; read-out: Suppression of cytokine production, IL-10 (IC50), CD3/CD28 stimulation) of the same compound?
A: Its IC50 is greater than 10 µM.

Q: And the IC50 (CD19 CAR T cells; read-out: Suppression of cytokine production, MIG (IC50), CD3/CD28 stimulation)?
A: The IC50 was greater than 10 µM.

Q: What about the IC50 (CD19 CAR T cells; read-out: Suppression of cytokine production, MIP-1a (IC50), CD3/CD28 stimulation) of the same compound?
A: Its IC50 is greater than 10 µM.

Q: What about the IC50 (CD19 CAR T cells; read-out: Suppression of cytokine production, MIP-1a (IC50), KIP-1 stimulation) of the same compound?
A: The IC50 was greater than 10 µM.

Q: And the IC50 (CD19 CAR T cells; read-out: Suppression of cytokine production, MIP-1b (IC50), CD3/CD28 stimulation)?
A: The IC50 was greater than 10 µM.

Q: What about the IC50 (CD19 CAR T cells; read-out: Suppression of cytokine production, MIP-1b (IC50), KIP-1 stimulation) of the same compound?
A: The IC50 was greater than 10 µM.

Q: What about the IC50 (CD19 CAR T cells; read-out: Suppression of cytokine production, Perforin (IC50), CD3/CD28 stimulation) of the same compound?
A: The IC50 was greater than 10 µM.

Q: What about the IC50 (CD19 CAR T cells; read-out: Suppression of cytokine production, Perforin (IC50), KIP-1 stimulation) of the same compound?
A: The IC50 was greater than 10 µM.

Q: For `C[C@H]1C[C@@H]2[C@H]([C@@H](O)C[C@@]3(C)[C@H]2CC[C@]3(O)C(=O)CO)[C@@]2(C)C=CC(=O)C=C12` [methylprednisolone], which “PPB adj. in Vitro concentration (free)” value [1] is on record?
A: Its value is 670 nM.

Q: And the “PPB adj. in Vitro concentration (total)” value [1]?
A: Its value is 2.56 µM.

Q: And the “clinically relevant dose level (in vitro concentration)” value [1]?
A: The value was roughly 2.5 µM.

Q: What about the Cmax ([1]; 100 mg) of the same compound?
A: The Cmax was 960 ng/mL.

Q: And the “Cmax (ng/ml) (free)” value ([1]; 100 mg)?
A: The value was 251 ng/mL.

Q: What about the pSTAT3 [2, 5] of the same compound?
A: The pSTAT3 was 25867.

Q: And the pSTAT4 [2, 5]?
A: The pSTAT4 was 11225.

Q: And the pSTAT5 [2, 5]?
A: Its pSTAT5 is 14781.

Q: And the pSTAT3 ([2]; IL-6 + drug 0.125 uM)?
A: Its pSTAT3 is 30520.

Q: What about the pSTAT4 ([2]; IL-6 + drug 0.125 uM) of the same compound?
A: The pSTAT4 was 14740.

Q: What about the pSTAT5 ([2]; IL-6 + drug 0.125 uM) of the same compound?
A: The pSTAT5 was 18739.

Q: And the pSTAT3 ([2]; IL-6 + drug 0.5 uM)?
A: Its pSTAT3 is 30901.

Q: What about the pSTAT4 ([2]; IL-6 + drug 0.5 uM) of the same compound?
A: Its pSTAT4 is 14903.

Q: And the pSTAT5 ([2]; IL-6 + drug 0.5 uM)?
A: The pSTAT5 was 20208.

Q: And the pSTAT3 ([2]; IL-6 + drug 1 uM)?
A: Its pSTAT3 is 28287.

Q: And the pSTAT4 ([2]; IL-6 + drug 1 uM)?
A: Its pSTAT4 is 14989.

Q: And the pSTAT5 ([2]; IL-6 + drug 1 uM)?
A: The pSTAT5 was 18668.

Q: And the pSTAT3 ([2]; IL-6 + drug 5 uM)?
A: The pSTAT3 was 25433.

Q: What about the pSTAT4 ([2]; IL-6 + drug 5 uM) of the same compound?
A: Its pSTAT4 is 11282.

Q: What about the pSTAT5 ([2]; IL-6 + drug 5 uM) of the same compound?
A: Its pSTAT5 is 15142.

Q: What about the “impact on CAR-T serial killing (percent cytotoxicity)” value [3] of the same compound?
A: The value was “differential impacts”.

Q: What about the viability at 0 day, 1000 nM (in vitro) of the same compound?
A: Its viability at 0 day, 1000 nM is 75%.

Q: And the viability at 0 day, 5000 nM (in vitro)?
A: The viability at 0 day, 5000 nM was 75%.

Q: What about the viability at 4 day, 1000 nM (in vitro) of the same compound?
A: Its viability at 4 day, 1000 nM is 58.1%.

Q: What about the viability at 4 day, 5000 nM (in vitro) of the same compound?
A: The viability at 4 day, 5000 nM was 49.4%.

Q: What about the viability at 8 day, 1000 nM (in vitro) of the same compound?
A: Its viability at 8 day, 1000 nM is 69.1%.

Q: And the viability at 8 day, 5000 nM (in vitro)?
A: The viability at 8 day, 5000 nM was 66%.

Q: And the viability at 12 day, 1000 nM (in vitro)?
A: Its viability at 12 day, 1000 nM is 76.3%.

Q: And the viability at 12 day, 5000 nM (in vitro)?
A: Its viability at 12 day, 5000 nM is 71.9%.

Q: What about the Protein binding [4] of the same compound?
A: Its Protein binding is 78%.

Q: And the “% viability” value (CAR-T cells; dose 1000 nM, day 4)?
A: Its value is 44.3%.

Q: What about the “% viability” value (CAR-T cells; dose 1000 nM, day 12) of the same compound?
A: The value was 62.6%.

Q: And the “% viability” value (CAR-T cells; dose 5000 nM, day 4)?
A: Its value is 46.6%.

Q: And the “% viability” value (CAR-T cells; dose 5000 nM, day 8)?
A: The value was 59.1%.

Q: What about the “% viability” value (CAR-T cells; dose 5000 nM, day 12) of the same compound?
A: Its value is 58.9%.
